Here are results for two compounds from EP0428103A2, “Prevention of glycoprotein enveloped virus infectivity by pyridyloxazole-2-ones” (MERRELL DOW PHARMACEUTICALS INC., priority 1989, dated 1991).

In one assay the test system is RF strain of HIV-1. As to the kind of experiment: p24 antigen expression from HIV infected T-lymphocytes. The format is cell-based. The note with it: C8166 T cell line; for p24 Antigen: culture fluid after 3 days. The protocol:
Cells (C8166 T cell line) were pretreated with test compounds at appropriate concentrations for 3 hours prior to virus (RF strain of HIV-1) absorption. Low multiplicity of infection was used and virus absorption period was 1 hour at room temperature. the cells were washed X1 in PBS and resuspended in fresh medium containing the appropriate concentrations of test compound. Cells incubated at 37°C and after 3 days culture fluid was assayed for p24 antigen as a measure of viral replication. Because these compounds were tested as the free base, they had to be taken up in DMSO and therefore a series of DMSO virus controls were needed for comparison.

Assay [1] has as its system Moloney murine leukemia virus (MoLV). As to the kind of experiment: in vitro XC plaque assay. The format is cell-based. The note with it: mouse SC-1 cells; for Mean No. of Foci: control 84 foci. The protocol: This assay was performed according to the method of Rowe et al. (Virology, 1970, 42, 1136-39) as previously described by L. Hsu, et al. (J. Virological Methods, 1980, 1, 167-77) and T. L. Bowlin and M. R. Proffitt (J. Interferon Res., 1983, 3(1), 19-31). Mouse SC-1 cells (fibroblast) (10⁵) were seeded into each well of 6-well cluster plates (Costar #3506) in 4 ml Minimum Essential Medium (MEM) with 10% Fetal Calf Serum (FCS). Following an 18 hour incubation period (37°C), Moloney murine leukemia virus (MoLV) was applied at a predetermined titer to give optimal (i.e. countable) numbers of virus plaques. Compounds were added 2 hours prior to addition of the virus. Three days later the culture medium was removed, the SC-1 cell monolayers were exposed to UV irradiation (1800 ergs), and rat XC cells (10⁶) were seeded into each well in 4 ml MEM. Following an additional 3 day incubation (37°C), these cells were fixed with ethyl alcohol (95%) and stained with 0.3% crystal violet. Plaques were then counted under low magnification.

Another assay deals with HIV. The note with it: CD4+ cells, Fields, et al., Nature, Vol. 333, 19 May 1988, cited from earlier work.

Where a name gives a salt, the structure may show the parent alone.

The term inhibition denotes the drop in the measured response relative to a control, in per cent. Regarding `CCCc1[nH]c(=O)oc1-c1ccncc1` [Test Compound, 4-propyl-5-(4-pyridinyl)-2(3H)-oxazolone], the “p24 Antigen” value worked out at 613 pg/mL with RF strain of HIV-1 (1 µg/ml, DMSO 0.01 %, vehicle control 1027 pg/ml) and 244 pg/mL with RF strain of HIV-1 (10 µg/ml, DMSO 0.1 %, vehicle control 2408 pg/ml). The inhibition at 1 µg/mL in the assay with RF strain of HIV-1 (Human immunodeficiency virus 1, 72 h, 1 µg/ml, DMSO 0.01 %, 3 days) is 41%; in assay [1] (Murine leukemia virus, SC1, 1 µg/ml, compound added 2 hours prior to virus), 60.7%. In the assay with RF strain of HIV-1 (Human immunodeficiency virus 1, 72 h, 10 µg/ml, DMSO 0.1 %, 3 days), this compound came in with an inhibition at 10 µg/mL of 90%. Moreover, the “Mean No. of Foci” value in assay [1] (0.10 µg/ml) was 85; in assay [1] (0.25 µg/ml), 67; in assay [1] (0.5 µg/ml), 68; in assay [1] (0.75 µg/ml), 63; in assay [1] (1 µg/ml, compound added 2 hours prior to virus), 33. Moreover, at 0.1 µg/mL the inhibition in assay [1] (Murine leukemia virus, SC1, 0.10 µg/ml) was 0%. In addition, in assay [1] (Murine leukemia virus, SC1, 0.25 µg/ml), 0.25 µg/mL produced 20% inhibition. The compound also returned an inhibition at 0.5 µg/mL in assay [1] (Murine leukemia virus, SC1, 0.5 µg/ml) of 19%. Moreover, in assay [1] (Murine leukemia virus, SC1, 0.75 µg/ml), the inhibition at 0.75 µg/mL stood at 25%.

As to `CC1CNCCN1S(=O)(=O)c1cccc2cnccc12` (stereo not shown) [1,5-isoquinolinesulphonyl-2-methylpiperazine dihydrochloride], the “HIV cell surface binding” value in the assay with HIV is on record as “does not interfere”. Also, the viral infectivity result in the assay on HIV (accumulation of virus particles at the cell surface) is recorded as “inhibition of viral infectivity”.
